Measurements: ChEMBL document CHEMBL5107956, “Natural products from mangrove sediments-derived microbes: Structural diversity, bioactivities, biosynthesis, and total synthesis” (Eur J Med Chem, 2022)
Values after ≈ are worked out from the molar mass of the structure shown.

Assays:
[1] = system: Colletotrichum gloeosporioides; assay: Antifungal activity against Colletotrichum gloeosporioides assessed as inhibition of fungal growth measured after 72 hrs by micro plate reader analysis; type: functional
Candida albicans = assay: Antifungal activity against Candida albicans assessed as fungal growth inhibition; type: functional
Salmonella enterica = assay: Antibacterial activity against Salmonella enterica ATCC 6539 assessed as bacterial cell growth inhibition measured after 24 hrs by Bactiter-glo assay; type: functional
[2] = Inhibition of influenza A virus Neuraminidase N3 incubated for 10 mins by fluorescence based analysis
[3] = biological target: Phosphotyrosine-protein phosphatase PTPB (Mycobacterium tuberculosis, UniProt P96830); assay: Inhibition of N-terminal His6-tagged Mycobacterium tuberculosis H37Rv PTPB using 6,8-difluoromethylumbelliferyl phosphate as substrate incubated for 30 mins by fluorescence based analysis
RAW264.7 = assay: Antiinflammatory activity against LPS-induced mouse RAW264.7 cells assessed as inhibition of NO production measured after 24 hrs […]; type: functional, cell-based; details: RAW264.7, 24 h
NCI-H1975 = assay: Cytotoxicity against human NCI-H1975 cells assessed as cell growth inhibition measured after 72 hrs by MTT assay; type: functional, cell-based; details: NCI-H1975, 72 h
HL-60 [4] = assay: Cytotoxicity against human HL-60 cells assessed as cell growth inhibition measured after 72 hrs by MTT assay; type: functional, cell-based; details: HL-60, 72 h
[5] = system: Pseudopestalotiopsis theae; assay: Antifungal activity against Pestalotiopsis theae assessed as fungal cell growth inhibition; type: functional; details: read-out: ED50 (the source's name)
[6] = system: Trypanosoma brucei brucei; assay: Antitrypanosomal activity against Trypanosoma brucei brucei GUTat3.1 assessed as parasite growth inhibition measured after 24 hrs by alamar blue staining based analysis; type: functional, organism-based; details: GUTat3.1, 24 h
ACHN [7] = assay: Antiproliferative activity against human ACHN cells assessed as cell growth inhibition; type: functional, cell-based
ACHN [8] = assay: Antiproliferative activity against human ACHN cells assessed as cell growth inhibition measured after 72 hrs by CCK-8 assay; type: functional, cell-based
K562 = assay: Antiproliferative activity against human K562 cells assessed as cell growth inhibition measured after 72 hrs by CCK-8 assay; type: functional, cell-based; details: K562, 72 h
HL-60 [9] = assay: Antiproliferative activity against human HL-60 cells assessed as cell growth inhibition measured after 72 hrs by CCK-8 assay; type: functional, cell-based; details: HL-60, 72 h
[10] = biological target: Angiotensin-converting enzyme (Homo sapiens, UniProt P12821); assay: Inhibition of ACE (unknown origin) using hippuryl-histidyl-leucine as substrate pre-incubated with compound for 10 mins followed by substrate addition measured after 60 mins by HPLC analysis
Bel-7402 [11] = assay: Cytotoxicity against human Bel-7402 cells assessed as cell growth inhibition by MTT assay; type: functional, cell-based
A2780 = assay: Cytotoxicity against human A2780 cells assessed as cell growth inhibition by MTT assay; type: functional, cell-based
A549 [12] = assay: Antiproliferative activity against human A549 cells assessed as cell growth inhibition by MTT assay; type: functional, cell-based
HCT-8 = assay: Cytotoxicity against human HCT-8 cells assessed as cell growth inhibition by MTT assay; type: functional, cell-based
SMMC-7721 = assay: Antiproliferative activity against human SMMC-7721 cells assessed as cell growth inhibition; type: functional, cell-based
20S proteasome = assay: Inhibition of 20S proteasome (unknown origin) by fluorescence based assay; type: protein-complex assay, Homo sapiens
A549 [13] = assay: Cytotoxicity against human A549 cells assessed as cell growth inhibition measured after 72 hrs by MTT assay; type: functional, cell-based; details: A549, 72 h
Bel-7402 [14] = assay: Cytotoxicity against human Bel-7402 cells assessed as cell growth inhibition measured after 72 hrs by MTT assay; type: functional, cell-based; details: Bel-7402, 72 h
MCF7 = assay: Cytotoxicity against human MCF7 cells assessed as cell growth inhibition incubated for 48 hrs by MTT assay; type: functional, cell-based; details: MCF7, 48 h
SF-268 = assay: Cytotoxicity against human SF-268 cells assessed as cell growth inhibition incubated for 48 hrs by MTT assay; type: functional, cell-based; details: SF-268, 48 h
NCI-H460 = assay: Cytotoxicity against human NCI-H460 cells assessed as cell growth inhibition incubated for 48 hrs by MTT assay; type: functional, cell-based; details: NCI-H460, 48 h
[15] = biological target: Rho-associated protein kinase 2 (Homo sapiens, UniProt O75116); assay: Inhibition of ROCK2 (unknown origin) by HTRF kinase assay
Acetylcholinesterase = Acetylcholinesterase (Homo sapiens, UniProt P22303); assay: Inhibition of AChE (unknown origin) using acetylthiocholine iodide as substrate measured after 30 mins by Ellman's method
Chain of Acetylcholinesterase (P22303 whole entry): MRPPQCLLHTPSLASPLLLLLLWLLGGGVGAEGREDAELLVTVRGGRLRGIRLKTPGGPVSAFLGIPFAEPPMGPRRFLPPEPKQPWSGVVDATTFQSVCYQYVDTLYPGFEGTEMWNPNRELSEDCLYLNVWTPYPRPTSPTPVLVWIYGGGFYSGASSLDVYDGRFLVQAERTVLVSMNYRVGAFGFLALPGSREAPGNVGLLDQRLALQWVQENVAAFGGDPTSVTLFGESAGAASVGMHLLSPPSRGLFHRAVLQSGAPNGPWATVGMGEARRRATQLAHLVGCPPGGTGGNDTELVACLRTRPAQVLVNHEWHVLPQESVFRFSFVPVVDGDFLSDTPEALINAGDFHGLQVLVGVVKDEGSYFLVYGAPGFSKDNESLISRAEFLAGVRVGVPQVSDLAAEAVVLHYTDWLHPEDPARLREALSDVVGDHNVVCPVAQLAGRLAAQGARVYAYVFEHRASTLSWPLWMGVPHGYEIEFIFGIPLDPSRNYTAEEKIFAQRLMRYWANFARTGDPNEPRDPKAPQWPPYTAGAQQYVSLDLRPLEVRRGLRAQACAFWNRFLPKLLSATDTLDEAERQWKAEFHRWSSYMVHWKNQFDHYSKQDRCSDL

Chain of Angiotensin-converting enzyme (P12821 whole entry): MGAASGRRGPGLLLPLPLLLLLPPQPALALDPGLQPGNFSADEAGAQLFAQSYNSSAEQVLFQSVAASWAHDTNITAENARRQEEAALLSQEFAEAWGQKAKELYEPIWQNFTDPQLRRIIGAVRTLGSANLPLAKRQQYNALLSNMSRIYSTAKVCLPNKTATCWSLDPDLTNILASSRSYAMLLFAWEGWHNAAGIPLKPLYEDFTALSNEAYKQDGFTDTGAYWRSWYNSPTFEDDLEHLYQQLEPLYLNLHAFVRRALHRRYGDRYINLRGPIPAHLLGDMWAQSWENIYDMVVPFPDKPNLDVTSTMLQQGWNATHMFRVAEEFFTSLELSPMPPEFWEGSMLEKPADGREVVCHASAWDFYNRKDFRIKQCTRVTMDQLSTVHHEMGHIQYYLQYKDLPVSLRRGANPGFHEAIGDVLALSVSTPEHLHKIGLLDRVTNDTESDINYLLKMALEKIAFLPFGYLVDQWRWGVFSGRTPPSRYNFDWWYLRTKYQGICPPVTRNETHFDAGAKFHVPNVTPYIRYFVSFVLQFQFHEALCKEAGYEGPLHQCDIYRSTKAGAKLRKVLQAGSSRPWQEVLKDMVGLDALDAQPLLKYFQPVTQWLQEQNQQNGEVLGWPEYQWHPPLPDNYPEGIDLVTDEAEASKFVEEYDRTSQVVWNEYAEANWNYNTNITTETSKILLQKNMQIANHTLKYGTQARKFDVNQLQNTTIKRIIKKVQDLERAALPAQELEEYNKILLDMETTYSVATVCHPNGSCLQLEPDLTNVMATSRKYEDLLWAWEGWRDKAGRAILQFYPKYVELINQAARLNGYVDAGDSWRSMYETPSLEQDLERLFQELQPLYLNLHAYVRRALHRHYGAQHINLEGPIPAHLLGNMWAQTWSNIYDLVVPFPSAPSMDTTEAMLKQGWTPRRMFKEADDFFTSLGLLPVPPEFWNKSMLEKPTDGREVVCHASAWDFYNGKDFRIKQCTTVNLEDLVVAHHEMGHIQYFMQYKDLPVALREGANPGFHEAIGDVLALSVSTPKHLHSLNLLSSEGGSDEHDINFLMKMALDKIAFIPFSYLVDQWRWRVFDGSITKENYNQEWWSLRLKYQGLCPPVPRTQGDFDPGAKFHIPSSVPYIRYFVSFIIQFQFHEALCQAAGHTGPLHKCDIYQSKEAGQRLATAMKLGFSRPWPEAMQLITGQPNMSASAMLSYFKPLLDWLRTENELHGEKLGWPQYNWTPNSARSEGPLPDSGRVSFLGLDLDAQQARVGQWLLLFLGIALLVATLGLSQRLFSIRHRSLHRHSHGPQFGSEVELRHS
Chain of Rho-associated protein kinase 2 (O75116 whole entry): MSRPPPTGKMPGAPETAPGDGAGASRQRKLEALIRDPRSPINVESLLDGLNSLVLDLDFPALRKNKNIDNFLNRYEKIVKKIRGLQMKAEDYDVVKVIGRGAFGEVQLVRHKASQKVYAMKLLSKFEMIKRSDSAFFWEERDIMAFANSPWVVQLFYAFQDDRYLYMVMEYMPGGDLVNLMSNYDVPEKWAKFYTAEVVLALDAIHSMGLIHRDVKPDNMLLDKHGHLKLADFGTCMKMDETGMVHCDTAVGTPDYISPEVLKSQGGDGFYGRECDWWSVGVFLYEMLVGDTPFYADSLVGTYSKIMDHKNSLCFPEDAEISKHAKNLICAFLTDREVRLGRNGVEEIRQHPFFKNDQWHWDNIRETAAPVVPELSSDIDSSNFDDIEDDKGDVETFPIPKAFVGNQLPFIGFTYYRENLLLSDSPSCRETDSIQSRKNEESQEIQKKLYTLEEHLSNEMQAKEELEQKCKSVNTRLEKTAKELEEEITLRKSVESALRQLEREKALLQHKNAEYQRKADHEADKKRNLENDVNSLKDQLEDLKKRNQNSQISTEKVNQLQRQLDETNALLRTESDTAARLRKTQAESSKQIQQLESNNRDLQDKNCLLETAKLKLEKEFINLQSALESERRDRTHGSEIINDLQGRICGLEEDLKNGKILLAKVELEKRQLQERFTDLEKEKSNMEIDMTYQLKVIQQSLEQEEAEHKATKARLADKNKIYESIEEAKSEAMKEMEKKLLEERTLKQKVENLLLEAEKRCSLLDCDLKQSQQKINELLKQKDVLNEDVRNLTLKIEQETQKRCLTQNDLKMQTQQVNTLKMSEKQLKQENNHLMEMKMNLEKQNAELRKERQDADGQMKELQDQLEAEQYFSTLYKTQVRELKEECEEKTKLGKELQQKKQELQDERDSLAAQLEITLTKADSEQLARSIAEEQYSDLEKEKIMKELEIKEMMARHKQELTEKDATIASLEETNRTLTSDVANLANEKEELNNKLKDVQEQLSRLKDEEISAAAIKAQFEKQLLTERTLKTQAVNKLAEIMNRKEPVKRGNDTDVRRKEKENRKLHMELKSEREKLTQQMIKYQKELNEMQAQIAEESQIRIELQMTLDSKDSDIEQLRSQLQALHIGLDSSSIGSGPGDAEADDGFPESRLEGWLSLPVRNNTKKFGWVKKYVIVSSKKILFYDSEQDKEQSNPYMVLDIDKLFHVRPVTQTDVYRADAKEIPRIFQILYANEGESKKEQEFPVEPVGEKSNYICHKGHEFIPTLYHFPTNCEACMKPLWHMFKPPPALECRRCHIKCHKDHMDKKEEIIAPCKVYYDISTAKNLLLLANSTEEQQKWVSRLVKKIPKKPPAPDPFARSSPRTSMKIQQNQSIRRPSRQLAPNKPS
Chain of Phosphotyrosine-protein phosphatase PTPB (P96830 whole entry): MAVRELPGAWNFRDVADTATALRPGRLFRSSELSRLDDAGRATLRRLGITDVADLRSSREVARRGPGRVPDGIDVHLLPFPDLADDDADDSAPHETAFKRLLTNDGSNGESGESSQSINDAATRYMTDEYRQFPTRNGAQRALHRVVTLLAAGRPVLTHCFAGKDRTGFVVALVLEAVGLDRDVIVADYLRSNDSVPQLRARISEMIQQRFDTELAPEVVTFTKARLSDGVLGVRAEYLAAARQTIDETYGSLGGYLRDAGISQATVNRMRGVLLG

Question: With `CC1=CC[C@]23C[C@@H]1C[C@@](C)(O)[C@H]2[C@H](O)C[C@@H]3C` as the compound, how does the MIC [1] read?
Answer: The MIC was 1 µg/mL (≈ 4.23 µM).

Question: For `CCC(C)C1OC(=O)/C=C/C=C/C=C/C=C/C=C/CC(O)CC(O)CC(O)CC(O)CC(O)CC(O)CC(O)CC(O)/C=C/C1C` (centres undefined), which MIC (Candida albicans) is on record?
Answer: The MIC was 25 µM (≈ 16.3 µg/mL).

Question: For `Cc1cc2c3c(c1C)C(C)(C)CCn3c(=O)c(=O)n2C[C@H](O)[C@H](O)[C@H](O)CO`, which MIC (Salmonella enterica) is on record?
Answer: Its MIC is 12.4 µM (≈ 4.87 µg/mL).

Question: Which IC50 [2] does the source give for `CN1C(=O)c2cc(O)ccc2NC(=O)C12O[C@H]2c1ccccc1` (some centres undefined) here?
Answer: The IC50 was 5.02 µM.

Question: Which IC50 [3] does the source give for `CC(C)[C@@H](C)/C=C/[C@@H](C)[C@@]1(C)C[C@H]2C3=C4[C@@H](C=C5C[C@@H](O)CC[C@]5(C)[C@H]4CC[C@@]31C)[C@H](C(=O)O)[C@H]2C(=O)O` here?
Answer: Its IC50 is 15.1 µM.

Question: What about the IC50 (RAW264.7) of the same compound?
Answer: Its IC50 is 4.5 µM.

Question: Which IC50 (NCI-H1975) does the source give for `C/C=C/C1=CC(=O)[C@@]2(C(=O)c3c(OC)cc(OC)cc3C(=O)OC)O[C@H]2O1` here?
Answer: The IC50 was 3.7 µM.

Question: And the IC50 (HL-60 [4])?
Answer: The IC50 was 3.7 µM.

Question: For `CC(=C\C(=O)O)/C=C(\C)CC(C)/C=C/CC[C@H]1OC(=O)[C@@H]1CO` (some centres undefined), which EC50 [5] is on record?
Answer: The EC50 was 38.1 µg/mL (≈ 118 µM).

Question: With `CC(=O)/C(=C\c1ccc(O)cc1)OC(Cc1c[nH]c2ccccc12)C(=O)O` (centres undefined) as the compound, how does the IC50 [6] read?
Answer: The IC50 was 5.21 µM.

Question: For `COc1nc(C/C=C(\C)C/C(C)=C/C(C)=C/[C@@H](C)[C@@H](O)/C(C)=C/C(C)=O)cc(O)c1OC`, which IC50 (ACHN [7]) is on record?
Answer: Its IC50 is 0.02 µM.

Question: What does the source list for `C/C=C/[C@H](O[C@H]1O[C@@H](CO)[C@H](O)[C@@H](O)[C@@H]1O)[C@H](C)/C=C(C)/C=C/C/C(C)=C/Cc1nc(OC)c(OC)c(O)c1C`?
Answer: IC50 (ACHN [8]): 2.3 µM; IC50 (K562): 5.5 µM; IC50 (HL-60 [9]): 1.3 µM

Question: Which IC50 [10] does the source give for `CC(=O)C[C@@]1(O)C(=O)C2=C3O[C@H](C)C(C)(C)[C@]3(O)C(=O)c3c(C)cc(O)c(c32)C1=O` here?
Answer: Its IC50 is 3.1 µM.

Question: What does the source list for `C=C1CC[C@H]2C(C)(C)CCC[C@]2(C)[C@H]1C[C@@]12C[C@H]3C(=O)N(C)[C@@H](C(C)C)C(=O)N3[C@@H]1Nc1ccccc12`?
Answer: IC50 (Bel-7402 [11]): 1 µM; IC50 (A2780): 1 µM; IC50 (A549 [12]): 1 µM; IC50 (HCT-8): 1 µM

Question: Which IC50 (SMMC-7721) does the source give for `Cc1ccc(OC(=O)CCN)cc1` here?
Answer: Its IC50 is 22 µg/mL (≈ 123 µM).

Question: With `CC(C)[C@H](O)[C@@]12NC(=O)[C@H](C)[C@@H]1OC2=O` [OMURALIDE] as the compound, how does the IC50 (20S proteasome) read?
Answer: Its IC50 is 0.049 µM.

Question: With `C=CC(C)(C)c1[nH]c2c(CC=C(C)C)cc(CC=C(C)C)cc2c1C[C@@H]1NC(=O)C(=C)NC1=O` as the compound, how does the IC50 (A549 [13]) read?
Answer: The IC50 was 1.43 µM.

Question: What about the IC50 (Bel-7402 [14]) of the same compound?
Answer: Its IC50 is 4.2 µM.

Question: For `CC(C)[C@@H](C)/C=C/[C@@H](C)[C@H]1CC[C@H]2C3=CC(=O)N(CCO)[C@@]3(O)CC[C@]12C`, which IC50 (MCF7) is on record?
Answer: The IC50 was 18.1 µg/mL (≈ 48.2 µM).

Question: What about the IC50 (SF-268) of the same compound?
Answer: Its IC50 is 13 µg/mL (≈ 34.6 µM).

Question: And the IC50 (NCI-H460)?
Answer: Its IC50 is 23.5 µg/mL (≈ 62.6 µM).

Question: Which IC50 [15] does the source give for `CCOC(=O)[C@@H](Cc1c(O)cc(C)c2c(O)c3c(cc12)[C@@H](O)CCC3=O)C(=O)OC` here?
Answer: Its IC50 is 0.96 µM.

Question: For `C[C@H]1CN2C(=O)[C@]34Cc5c([nH]c6c7c(ccc56)OC(C)(C)CC7=O)C(C)(C)[C@@H]3C[C@@]2(C1)C(=O)N4`, which IC50 (Acetylcholinesterase) is on record?
Answer: The IC50 was 58 µM.

Question: With `CC(=O)C[C@]1(O)C(=O)C2=C3O[C@H](C)C(C)(C)[C@]3(O)C(=O)c3c(C)cc(O)c(c32)C1=O` as the compound, how does the IC50 [10] read?
Answer: The IC50 was 11.3 µM.
